Assay results from PubChem BioAssay AID405 (SGCOxCompounds, 2006).

Biological target: Receptor-type tyrosine-protein phosphatase R (Homo sapiens) (UniProt Q15256)
Assay: inhibitors of receptor tyrosine phosphatase R – biochemical, recombinant human enzyme, DiFMUP fluorescence (AID 405)
Conditions: recombinant PTPRR, DiFMUP fluorescence phosphatase assay; for inhibition: at 50 µM, active compounds read high

Receptor-type tyrosine-protein phosphatase R (Homo sapiens), sequence (Q15256 whole entry, looked up): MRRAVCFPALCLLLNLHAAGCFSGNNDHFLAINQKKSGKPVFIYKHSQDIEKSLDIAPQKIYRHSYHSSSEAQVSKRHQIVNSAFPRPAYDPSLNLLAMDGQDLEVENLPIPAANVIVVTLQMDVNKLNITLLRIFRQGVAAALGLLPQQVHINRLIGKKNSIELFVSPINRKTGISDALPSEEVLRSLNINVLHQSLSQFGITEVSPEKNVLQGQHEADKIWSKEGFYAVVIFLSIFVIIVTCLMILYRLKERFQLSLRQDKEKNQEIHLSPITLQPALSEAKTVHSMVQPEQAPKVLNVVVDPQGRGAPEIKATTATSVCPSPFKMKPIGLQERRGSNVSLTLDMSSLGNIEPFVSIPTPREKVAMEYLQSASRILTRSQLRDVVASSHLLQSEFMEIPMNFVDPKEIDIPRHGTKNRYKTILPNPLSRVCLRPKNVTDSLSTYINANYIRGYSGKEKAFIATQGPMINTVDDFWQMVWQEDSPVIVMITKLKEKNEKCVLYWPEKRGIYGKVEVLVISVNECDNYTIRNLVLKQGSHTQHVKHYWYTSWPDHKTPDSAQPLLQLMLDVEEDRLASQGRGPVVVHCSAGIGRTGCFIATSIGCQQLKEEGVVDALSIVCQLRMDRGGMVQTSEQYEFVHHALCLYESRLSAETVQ

Compound | IC50 [µM] | inhibition [%]
NC1=NC(=O)/C(=C/C=C/c2ccc([N+](=O)[O-])o2)S1 | 2.3 | –
O=C(O)c1ccc(O)cn1.OO.[O]=[V] | – | 95
OO.OO.[K+].[O]=[V].c1ccc(-c2ccccn2)nc1 | – | 98
Cc1ccc(C)n1-c1cc(C(=O)O)ccc1O | 3.9 | –
O=C(O)c1ccc(O)c(C=Nc2ccc3oc(-c4ccc(F)cc4Cl)nc3c2)c1 | 7.3 | –
O=C(O)c1ccc([O-])cn1.OO.OO.[K+].[K+].[O]=[V] | – | 98
Cc1ccc2oc(-c3cccc(N=Cc4cc(C(=O)O)ccc4O)c3)nc2c1 | – | 51
COc1ccc(-c2nc3cc(N=Cc4cc(C(=O)O)ccc4O)ccc3o2)cc1 | 15.9 | –
O=C([O-])c1ccccn1.OO.OO.[K+].[K+].[O]=[V] | – | 98
O=C(O)c1ccc(O)c(C=Nc2ccc3oc(-c4cccc(Cl)c4)nc3c2)c1 | – | 83
CC(C)(c1ccc(NS(=O)(=O)C(F)(F)F)cc1)c1ccc(C(C)(C)c2ccc(NS(=O)(=O)C(F)(F)F)cc2)cc1 | – | 91
Cc1ccc2nc(-c3cc(N=Cc4cc(C(=O)O)ccc4O)ccc3O)[nH]c2c1 | 25.6 | –
COc1ccc(OC)c(N=Cc2cc(C(=O)O)ccc2O)c1 | – | 69
O=C1NC(=S)NC(=O)C1=C/C=C/c1ccco1 | – | 100
O=C(O)c1ccc(O)c(C=Nc2ccc3oc(-c4cc(Cl)ccc4Cl)nc3c2)c1 | – | 81
O=C(O)c1ccc(O)c(C=Nc2ccc3oc(-c4ccccc4)nc3c2)c1 | – | 66
CCn1nc(/C=C/c2ccccc2)[n+](=O)c2c(=O)n(C)c(=O)[nH]c21 | – | 63
CC(=O)c1ccc2c(c1)C1C=CCC1C(C(=O)O)N2 (configuration not stated) | 6.7 | –
Cc1ccc(C)n1-c1ccc(C(=O)O)cc1O | 13.7 | –
O=C(O)c1ccc(O)c(/C=N/N(CCO)C2=NS(=O)(=O)c3ccccc32)c1 | – | 66
CN(N=O)c1ccc(O)c(O)c1 | – | 33
O=C(O)c1ccc(O)c(N2C(=O)Nc3ccccc3N2O)c1 | – | 76
Cn1nc(/C=C/c2ccccc2)nc2c(=O)n(C)c(=O)nc1-2 | – | 77
O=C(O)c1ccc(O)c(C=Nc2ccc3oc(-c4cccc(Cl)c4Cl)nc3c2)c1 | – | 66
O=C1NC(=S)S/C1=C\C=C\c1ccc([N+](=O)[O-])o1 | – | 100
O=C(O)c1ccc(O)c(C=Nc2cccc(-c3nc4ccccc4o3)c2)c1 | – | 58
CCn1nc(-c2ccc(Cl)cc2)nc2c(=O)n(C)c(=O)nc1-2 | – | 64
